Assay results from ChEMBL document CHEMBL4145670, “A Bioactive Resveratrol Trimer from the Stem Bark of the Sri Lankan Endemic Plant Vateria copallifera” (J Nat Prod, 2018).
Activity calls are given as the source filed them. No cut-off for these calls is given here.

Columns and labels:
SK-MEL-5 = test: cells; settings: Homo sapiens, SK-MEL-5, 48 h, read-out: GI
Description: Growth inhibition of human SK-MEL-5 cells at 147.2 uM after 48 hrs by methylene blue staining based assay relative to control

HCT-116 = test: cells; settings: Homo sapiens, HCT-116, 48 h, read-out: GI
Description: Growth inhibition of human HCT116 cells at 147.2 uM after 48 hrs by methylene blue staining based assay relative to control

HepG2 = test: cells; settings: Homo sapiens, HepG2, 48 h, read-out: GI
Description: Growth inhibition of human HepG2 cells at 147.2 uM after 48 hrs by methylene blue staining based assay relative to control

PC-12 = test: cells; settings: Rattus norvegicus, PC-12, 3 h, read-out: Activity
Homo sapiens [1] = species on record: Homo sapiens; settings: 147.2 uM
Description: Inhibition of alpha-chymotrypsin (unknown origin) at 147.2 uM using N-succinyl-L-phenylalanine-p-nitroanilide as substrate pretreated for 25 mins followed by substrate addition relative to control

HeLa = test: cells; settings: Homo sapiens, 48 h, read-out: GI
Description: Growth inhibition of human HeLa cells at 147.2 uM after 48 hrs by methylene blue staining based assay relative to control

Homo sapiens [2] = species on record: Homo sapiens; settings: 44.1 uM
Description: Inhibition of elastase (unknown origin) at 44.1 uM using N-succinyl-Ala-Ala-Ala-p-nitroanilide as substrate pretreated for 25 mins followed by substrate addition relative to control

[3] = target: Cholinesterase (Homo sapiens) (UniProt P06276); settings: 14.7 uM
Description: Inhibition of BChE (unknown origin) at 14.7 uM using butyrylthiocholine iodide as substrate pretreated for 15 mins followed by substrate addition and measured by DTNB reagent based assay

MCF7 = test: cells; settings: Homo sapiens, MCF7, 48 h, read-out: GI
Description: Growth inhibition of human MCF7 cells at 147.2 uM after 48 hrs by methylene blue staining based assay relative to control

[4] = target: Cholinesterase (Homo sapiens) (UniProt P06276); settings: 10 ug/ml
Description: Inhibition of BChE (unknown origin) at 10 ug/ml using butyrylthiocholine iodide as substrate pretreated for 15 mins followed by substrate addition and measured by DTNB reagent based assay relative to control

Homo sapiens [5] = species on record: Homo sapiens; settings: 1.5 uM
Description: Inhibition of GST (unknown origin) at 1.5 uM using CDNB as substrate relative to control

Cholinesterase (Homo sapiens), sequence (P06276 whole entry): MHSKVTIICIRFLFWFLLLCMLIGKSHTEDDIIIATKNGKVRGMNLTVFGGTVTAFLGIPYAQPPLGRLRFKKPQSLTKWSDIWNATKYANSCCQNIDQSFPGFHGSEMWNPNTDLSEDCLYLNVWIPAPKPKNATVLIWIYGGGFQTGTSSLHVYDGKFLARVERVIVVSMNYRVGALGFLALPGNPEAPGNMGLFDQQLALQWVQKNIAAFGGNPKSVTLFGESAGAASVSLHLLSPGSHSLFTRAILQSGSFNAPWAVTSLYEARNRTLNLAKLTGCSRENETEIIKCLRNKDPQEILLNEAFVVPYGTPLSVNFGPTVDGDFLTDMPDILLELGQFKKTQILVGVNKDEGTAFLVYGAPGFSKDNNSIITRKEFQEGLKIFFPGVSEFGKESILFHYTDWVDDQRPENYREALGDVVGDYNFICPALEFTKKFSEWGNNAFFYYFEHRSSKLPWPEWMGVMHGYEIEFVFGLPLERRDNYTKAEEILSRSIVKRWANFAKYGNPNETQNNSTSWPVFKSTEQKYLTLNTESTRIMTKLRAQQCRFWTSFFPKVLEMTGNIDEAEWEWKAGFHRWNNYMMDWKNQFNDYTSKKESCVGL

SMILES: Oc1ccc(-c2oc3cc(O)c4c5c3c2-c2cc(O)cc(O)c2[C@H](c2ccc(O)cc2)[C@@H]5[C@H](c2ccc(O)cc2)[C@@H]4c2cc(O)cc(O)c2)cc1
- inhibition of growth at 147.2 µM (SK-MEL-5): < 50%
- inhibition of growth at 147.2 µM (HCT-116): < 50%
- inhibition of growth at 147.2 µM (HepG2): < 50%
- viability at 1.5 µM (PC-12): 88.3%
- inhibition (Homo sapiens [1]): 55.7%
- inhibition of growth at 147.2 µM (HeLa): < 50%
- inhibition (Homo sapiens [2]): 10.2%
- inhibition [3]: inactive
- inhibition of growth at 147.2 µM (MCF7): < 50%
- inhibition [4]: 19.7%
- inhibition (Homo sapiens [5]): 34.7%
